Patent publication US11090304B2 (Amgen Inc., priority 2018, dated 2021)
Where two headings read alike, the source gives them in different places.

Legend:
[1] = tested on: Phosphorylation of ERK1/2 in A549 cells; experiment: Phospho-ERK1/2 MSD assay in A549 cells; type: cell-based; conditions: Homo sapiens
Protocol: For compounds in Table 89, the following assay conditions were employed:
Phospho-ERK1/2 MSD Assay:
Sixteen hours prior to compound treatment, MIA PaCa-2 or A549 cells were seeded in 96-well cell culture plates at a density of 25,000 cells/well and incubated at 37° C., 5% CO2. A compound dose-response titration was diluted in growth media, added to appropriate wells of a cell culture plate, and then incubated at 37° C., 5% CO2 for 2 or 4 hours (see Table 15). Following compound treatment, cells were stimulated with 10 ng/mL EGF (Roche 11376454001) for 10 min, washed with ice-cold Dulbecco's phosphate-buffered saline, no Ca^2+ or Mg^2+ (ThermoFisher Scientific 14190144), and then lysed in RIPA buffer (50 mM Tris-HCl pH 7.5, 1% Igepal, 0.5% sodium deoxycholate, 150 mM NaCl, and 0.5% sodium dodecyl sulfate) containing protease inhibitors (Roche 4693132001) and phosphatase inhibitors (Roche 4906837001). Phosphorylation of ERK1/2 in compound-treated lysates was assayed using Phospho-ERK1/2 Whole Cell Lysate kits (Meso Scale Discovery K151DWD) according to the manufacturer's protocol. Assay plates were read on a Meso Scale Discovery Sector Imager 6000, and data were analyzed using a 4-parameter logistic model to calculate IC50 values.

[2] = tested on: Phosphorylation of ERK1/2 in MIA PaCa-2 cells; experiment: Phospho-ERK1/2 MSD assay in MIA PaCa-2 cells; type: cell-based
Summary of the method: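 Following a 2 or 4 h incubation with titrated compound, cells receive a 10 min pulse of 10 ng/mL EGF. Phospho-ERK1/2 in RIPA lysates is then quantified by MSD immunoassay, and IC50 values come from a four-parameter logistic model.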

[3] = biological target: GDP-bound KRAS protein (aa 1-169), containing both G12C and C118A amino acid substitutions (Homo sapiens, UniProt P01116, C118A/G12C); experiment: Coupled nucleotide exchange assay (SOS-mediated, AlphaScreen); type: biochemical; conditions: for Coupled exchange IC50 (5 min): 5 min compound pre-incubation
Chain of GDP-bound KRAS protein (aa 1-169), containing both G12C and C118A amino acid substitutions (P01116 1-169 isoform P01116-2 G12C/C118A): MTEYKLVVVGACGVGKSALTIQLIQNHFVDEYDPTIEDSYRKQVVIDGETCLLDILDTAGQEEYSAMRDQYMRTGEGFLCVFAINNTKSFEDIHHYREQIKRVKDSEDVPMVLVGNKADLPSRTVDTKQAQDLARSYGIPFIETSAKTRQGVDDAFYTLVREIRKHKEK

[4] = A549, 2 h, read-out: p-ERK IC50 (2 h; A549), 2 h compound treatment
[5] = A549, 4 h, read-out: p-ERK IC50 (4 h; A549), 4 h compound treatment
[6] = Homo sapiens, MIA PaCa-2, 2 h, read-out: p-ERK IC50 (2 h; MIA PaCa-2), 2 h compound treatment
[7] = read-out: p-ERK IC50 (2 h; MIA PaCa-2), 2 h compound treatment
[8] = Homo sapiens, MIA PaCa-2, 4 h, read-out: p-ERK IC50 (4 h; MIA PaCa-2), 4 h compound treatment

C=CC(=O)N1CCN(c2nc(=O)n(-c3ccccc3C(C)C)c3cc(Br)c(Cl)cc23)[C@@H](C)C1 (single isomer, unassigned) [Example 9-17-2]
IC50 [1, 4]: ≥ 10000 nM
IC50 [1, 5]: ≥ 100000 nM
IC50 [2, 6]: 1060 nM
IC50 ([2]; read-out: p-ERK IC50 (4 h; MIA PaCa-2), 4 h compound treatment): 859 nM
Coupled exchange IC50 (5 min) [3]: 1.66 µM
Coupled exchange IC50 (2 h) ([3]; 2 h compound pre-incubation): 163 nM

C=CC(=O)N1CCN(c2nc(=O)n(-c3cccnc3C(C)C)c3nc(-c4ccccc4F)c(Cl)cc23)[C@@H](C)C1 (single isomer, unassigned) [Example 54-9-1]
IC50 [1, 4]: ≥ 10000 nM
IC50 [2, 7]: 76 nM
Coupled exchange IC50 (5 min) [3]: 0.302 | nda μM

C=CC(=O)N1CCN(c2nc(=O)n(-c3c(C)ncnc3C(C)C)c3nc(-c4ccccc4F)c(Cl)cc23)[C@@H](C)C1 (single isomer, unassigned) [Example 55-13-2]
IC50 [1, 4]: ≥ 10000 nM
IC50 [2, 6]: 55 nM
Coupled exchange IC50 (5 min) [3]: 0.02 | nda μM

C=CC(=O)N1CCN(c2nc(=O)n(-c3c(C)cc(N(C)C)cc3C(C)C)c3nc(-c4ccccc4F)c(Cl)cc23)[C@@H](C)C1 (single isomer, unassigned) [Example 55-16-2]
IC50 [1, 4]: ≥ 10000 nM
IC50 [2, 6]: 123 nM
Coupled exchange IC50 (5 min) [3]: 0.039 | nda μM

C=CC(=O)N1CCN(c2nc(=O)n(-c3nccnc3C(C)(C)C)c3nc(-c4c(O)cccc4F)c(Cl)cc23)[C@@H](C)C1 (single isomer, unassigned) [Example 55-23-2]
IC50 [1, 4]: ≥ 10000 nM
IC50 [2, 6]: 77 nM
Coupled exchange IC50 (5 min) [3]: 0.062 | nda μM

C=CC(=O)N1CCN(c2nc(=O)n(-c3ccccc3C(C)C)c3nc(-c4c(O)cccc4F)c(F)cc23)[C@@H](C)C1 (single isomer, unassigned) [Example 57-6-2]
IC50 [1, 4]: ≥ 10000 nM
IC50 [2, 7]: 99 nM
Coupled exchange IC50 (5 min) [3]: 0.208 | nda μM

C=CC(=O)N1CCN(c2nc(=O)n(-c3ccccc3C(C)C)c3nc(-c4ccccc4F)c(F)cc23)[C@@H](C)C1 (single isomer, unassigned) [Example 57-7-2]
IC50 [1, 4]: ≥ 10000 nM
IC50 [2, 6]: 236 nM
Coupled exchange IC50 (5 min) [3]: 0.384 | nda μM

C=CC(=O)N1CCN(c2nc(=O)n(-c3ccccc3C(C)C)c3nc(N4CCCCC4)c(Cl)cc23)[C@@H](C)C1 (single isomer, unassigned) [Example 69-1-2]
IC50 [1, 4]: ≥ 10000 nM
IC50 [2, 6]: 1020 nM
Coupled exchange IC50 (5 min) [3]: 0.604 | nda μM

C=CC(=O)N1C[C@H](C)N(c2nc(=O)n(-c3c(C)ccnc3C(C)C)c3nc(-c4c(O)cccc4F)c(F)cc23)[C@@H](C)C1 (single isomer, unassigned) [Example 75-3]
IC50 [1, 4]: ≥ 10000 nM
IC50 [2, 6]: 27 nM
Coupled exchange IC50 (5 min) [3]: 0.029 | nda μM

C=CC(=O)N1CCN(c2nc(=O)n(-c3ccccc3C(C)C)c3c(C)c(-c4c(O)cccc4F)c(Cl)cc23)[C@@H](C)C1 (single isomer, unassigned) [Example 90-1]
IC50 [1, 5]: ≥ 33300 nM
IC50 [2, 8]: 221 nM

C=CC(=O)N1CCN(c2nc(=O)n(-c3ccccc3C(C)C)c3cc(Br)c(Cl)cc23)[C@@H](C)C1 [Example 9-17]
IC50 [1, 5]: 74400 nM
IC50 [2, 8]: 1110 nM

C=CC(=O)N1CCN(c2nc(=O)n(C(CC)CC)c3nc(-c4ccccc4F)c(Cl)cc23)[C@@H](C)C1 [Example 54-2, 6-chloro-7-(2-fluorophenyl)-4-((2S)-2-methyl-4-(2-propenoyl)-1-piperazinyl)-1-(3-pentanyl) pyrido[2,3-d]pyrimidin-2(1H)-one]
IC50 [1, 4]: ≥ 100000 nM
IC50 [1, 5]: ≥ 100000 nM
IC50 [2, 6]: 66600 nM
IC50 [2, 8]: 55600 nM

C=CC(=O)N1CCN(c2nc(=O)n(-c3c(CC)cccc3CC)c3nc(C4CCCC4)c(Cl)cc23)[C@@H](C)C1 [Example 54-4, 6~chloro-7-cyclopentyl-1-(2,6-diethylphenyl)-4-((2S)-2-methyl-4-(2-propenoyl)-1-piperazinyl) pyrido[2,3-d]pyrimidin-2(1H)-one]
IC50 [1, 4]: 48900 nM
IC50 [2, 6]: 2250 nM

C=CC(=O)N1CCN(c2nc(=O)n(-c3c(CC)cccc3CC)c3nc(-c4c(C)ccc5[nH]ncc45)c(Cl)cc23)[C@@H](C)C1 [Example 54-66, 6-chloro-1-(2,6-diethylphenyl)-7-(5-methyl-1H-indazol-4-yl)-4-((2S)-2-methyl-4-(2-propenoyl)-1-piperazinyl) pyrido[2,3-d]pyrimidin-2(1H)-one]
IC50 [1, 4]: ≥ 10000 nM
IC50 [1, 5]: ≥ 100000 nM
IC50 [2, 6]: 100 nM
IC50 [2, 8]: 122 nM

C=CC(=O)N1CCN(c2nc(=O)n([C@@H]3CCc4ccccc43)c3nc(-c4ccccc4F)c(Cl)cc23)[C@@H](C)C1 [Example 54-67, 6-chloro-1-((1R)-2,3-dihydro-1H-inden-1-yl)-7-(2-fluorophenyl)-4-((2S)-2-methyl-4-(2-propenoyl)-1-piperazinyl) pyrido[2,3-d]pyrimidin-2(1H)-one]
IC50 [1, 4]: ≥ 10000 nM
IC50 [2, 6]: ≥ 10000 nM

C=CC(=O)N1CCN(c2nc(=O)n(-c3ccccc3C(C)C)c3nc(Cl)c(Cl)cc23)CC1 [Example 54-80, 6,7-dichloro-1-(2-(2-propanyl)phenyl)-4-(4-(2-propenoyl)-1-piperazinyl) pyrido[2,3-d]pyrimidin-2(1H)-one]
IC50 [1, 5]: ≥ 100000 nM
IC50 [2, 8]: 5640 nM

C=CC(=O)N1CCN(c2nc(=O)n(-c3ccccc3C(C)C)c3nc(-c4ccccc4Cl)c(Cl)cc23)[C@@H](C)C1 [Example 54-84, 6-chloro-7-(2-chlorophenyl)-4-((2S)-2-methyl-4-(2-propenoyl)-1-piperazinyl)-1-(2-(2-propanyl)phenyl)pyrido [2,3-d]pyrimidin-2(1H)-one]
IC50 [1, 4]: ≥ 100000 nM
IC50 [1, 5]: ≥ 100000 nM
IC50 [2, 6]: 54 nM
IC50 [2, 8]: 84 nM

C=CC(=O)N1CCN(c2nc(=O)n(-c3ccccc3C(C)C)c3nc(-c4ccc(F)cc4F)c(Cl)cc23)[C@@H](C)C1 [Example 54-85, 6-chloro-7-(2,4-difluorophenyl)-4-((2S)-2-methyl-4-(2-propenoyl)-1-piperazinyl)-1-(2-(2-propanyl)phenyl)pyrido [2,3-d]pyrimidin-2(1H)-one]
IC50 [1, 4]: ≥ 100000 nM
IC50 [2, 6]: 160 nM

C=CC(=O)N1CCN(c2nc(=O)n(-c3ccccc3C(C)C)c3nc(-c4ccccc4F)c(Cl)cc23)[C@@H](C)C1 [Example 54-86, 6-chloro-7-(2-fluorophenyl)-4-((2S)-2-methyl-4-(2-propenoyl)-1-piperazinyl)-1-(2-(2-propanyl)phenyl)pyrido [2,3-d]pyrimidin-2(1H)-one]
IC50 [1, 4]: ≥ 33300 nM
IC50 [2, 6]: 90 nM

C=CC(=O)N1CCN(c2nc(=O)n(-c3ccccc3C(C)C)c3nc(Oc4cccc(F)c4)c(Cl)cc23)CC1 [Example 60-23, 6-chloro-7-(3-fluorophenoxy)-1-(2-(2-propanyl)phenyl)-4-(4-(2-propenoyl)-1-piperazinyl)pyrido[2,3-d]pyrimidin-2(1H)-one]
IC50 [1, 5]: 37900 nM
IC50 [2, 8]: 4490 nM

C=CC(=O)N1CCN(c2nc(=O)n(C(C(C)C)C(C)C)c3nc(Cl)c(Cl)cc23)CC1 [Example 60-35, 6,7-dichloro-1-(2,4-dimethyl-3-pentanyl)-4-(4-(2-propenoyl)-1-piperazinyl)pyrido[2,3-d]pyrimidin-2(1H)-one]
IC50 [1, 5]: 46200 nM
IC50 [2, 8]: 10700 nM

C=CC(=O)N1CCN(c2nc(=O)n(-c3ccccc3C(C)C)c3cc(-c4ccccc4F)c(Cl)cc23)[C@@H](C)C1 [Example 62-1, (S)-4-(4-acryloyl-2-methylpiperazin-1-yl)-6-chloro-7-(2-fluorophenyl)-1-(2-isopropylphenyl)quinazolin-2(1H)-one]
IC50 [1, 4]: ≥ 100000 nM
IC50 [2, 6]: 116 nM

C=CC(=O)N1CCN(c2nc(=O)n(-c3ccccc3C(C)C)c3nc(N4CCCCC4)c(Cl)cc23)[C@@H](C)C1 [Example 69-1, 6-Chloro-4-((2S)-2-methyl-4-(2-propenoyl)-1-piperazinyl)-7-(1-piperidinyl)-1-(2-(2-propanyl)phenyl)pyrido[2,3-d]pyrimidin-2(1H)-one]
IC50 [1, 5]: 64800 nM
IC50 [2, 8]: 1860 nM

C=CC(=O)N1CCN(c2nc(=O)n(-c3ccccc3C(C)C)c3cc(-c4ccccc4F)c(Cl)cc23)CC1 [Example 88, 6-Chloro-7-(2-fluorophenyl)-1-(2-(2-propanyl)phenyl)-4-(4-(2-propenoyl)-1-piperazinyl)-2(1H)-quinazolinone]
IC50 [1, 5]: 89400 nM
IC50 [2, 6]: 232 nM
IC50 [2, 8]: 243 nM

C=CC(=O)N1CCN(c2nc(=O)n(CC(C)(C)C)c3cc(-c4c(O)cccc4F)c(Cl)cc23)CC1 [Example 89, 6-Chloro-1-(2,2-dimethylpropyl)-7-(2-fluoro-6-hydroxyphenyl)-4-(4-(2-propenoyl)-1-piperazinyl)-2(1H)-quinazolinone]
IC50 [1, 4]: ≥ 10000 nM
IC50 [1, 5]: ≥ 11100 nM
IC50 [2, 6]: 687 nM
IC50 [2, 8]: 294 nM
